Measurements: US20090239749A1, “Biocidal compositions” (priority 2006, published 2009)
Converted amounts (≈) assume the structure as drawn.

How the values were obtained:
[1] = cited from earlier work
Candida albicans (CA) = test: Minimum Inhibitory Concentration (MIC) test in YEME media, 96 well plate; type: cell-based
Description: These materials produced according to Examples 4-6 were examined for their biocidal efficacy by following a standardised Minimum Inhibitory Concentration (MIC) test. The test consisted of known number of cells of a strain of Candida albicans (CA) in YEME (yeast extract malt extract media), inoculating concentrations of the active material and blanks contained in a 96 well plate. The plates were incubated at 37° C. overnight, and then examined with a UV plate reader at a wavelength of 550 nm.
Equivalent experiments were also conducted to determine the MIC for the biocide active dissolved in a water miscible solvent. In these cases the “blank” reference material was simply a sample of the solvent containing no active compound.
All experiments were repeated 4 times.
All experiments were conducted in YEME media against a CA culture.

MIC (Candida albicans (CA); ketoconazole, initial concentration 0.15 mg/ml active, incubated overnight 37° C.) [µg/mL] | Compound | solubility in water [1] | MIC (Candida albicans (CA); dissolved in a water/propylene glycol cosolvent mixture) [µg/mL]
 | CC1(C)[C@H](C(=O)O[C@H](C#N)c2cccc(Oc3ccccc3)c2)[C@@H]1/C=C(\Cl)C(F)(F)F (racemic) [λ-cyhalothrin] | 0.005 µg/mL (≈ 0.0111 µM) | 
 | CO/C=C(/C(=O)OC)c1ccccc1Oc1cc(Oc2ccccc2C#N)ncn1 [Azoxystrobin, methyl(E)-2-{2-[6-(2-cyanophenoxy)pyrimidin-4-yloxy]phenyl}-3-methoxyacrylate] | ~6 µg/mL (≈ 14.9 µM) | 
 | N#Cc1c(Cl)c(Cl)c(Cl)c(C#N)c1Cl [Chlorothalonil, 2,4,5,6-tetrachloroisophthalonitrile] | ~0.6 µg/mL (≈ 2.26 µM) | 
65 (≈ 122 µM) | CC(=O)N1CCN(c2ccc(OCC3COC(Cn4ccnc4)(c4ccc(Cl)cc4Cl)O3)cc2)CC1 (stereo not shown) [Ketoconazole, acetyl-dichlorophenyl-imidazole] |  | 
 | CCCC1COC(Cn2cncn2)(c2ccc(Cl)cc2Cl)O1 (stereo not shown) [Propiconazole, 1-(2-(2,4-dichlorophenyl)-4-propyl-1-1,3-dioxolan-2-ylmethyl)-1H-1,2,4-tri azole] | around 100 mg/L | 91.6 (≈ 268 µM)
 | Oc1cc(Cl)ccc1Oc1ccc(Cl)cc1Cl [Triclosan, 5-chloro-2-(2,4-dichlorophenoxy)-phenol] | 17 µg/mL (≈ 58.7 µM) | 
